For 34 molecules, melting point results are on record in patent publication US6930131B2, “Aryl substituted 3-ethoxy phenyl trifluoromethane sulfonamides for the treatment of non-insulin dependent diabetes mellitus (NIDDM)” (Wyeth, priority 2002, dated 2005).

In turn, `O=S(=O)(Nc1cccc(CCOCc2csc(-c3ccccc3Cl)n2)c1)C(F)(F)F` [Example 60, N-(3-{2-[2-(2-Chloro-phenyl)-thiazol-4-ylmethoxy]-ethyl}-phenyl)-C,C,C-trifluoro-methanesulfonamide] displayed a melting point of 86 to 87 °C. `O=S(=O)(Nc1cccc(CCOCc2noc(-c3ccc(C(F)(F)F)cc3)n2)c1)C(F)(F)F` [Example 87, N-{3-[2-(5-(4-trifluoromethylphenyl)-[1,2,4]oxadiazol-3-ylmethoxy)-ethyl]-phenyl}-C,C,C-trifluoro-methanesulfonamide] yielded a melting point of 83 to 86 °C. In turn, `O=S(=O)(Nc1cccc(CCOCc2ccc(Oc3ccccc3)cc2)c1)C(F)(F)F` [Example 76, N-{3-[2-(4-Phenoxy-benzyloxy)-ethyl]-phenyl}-C,C,C-trifluoro-methane sulfonamide] came in with a melting point of 47 to 49 °C. The value for `O=S(=O)(Nc1cccc(CCOCc2cc(-c3ccc(F)cc3)ccc2Cl)c1)C(F)(F)F` [Example 29, N-{3-[2-(4-Chloro-4′-fluoro-biphenyl-3-ylmethoxy)-ethyl]-phenyl)-C,C,C-trifluoro-methanesulfonamide] was 80 to 82 °C. Next, `O=S(=O)(Nc1cccc(CCOCc2ccc(-c3ccc(OC(F)(F)F)cc3)cc2F)c1)C(F)(F)F` [Example 18, C,C,C-Trifluoro-N-{3-[2-(3-fluoro-4′-trifluoromethoxy-biphenyl-4-yl-methoxy)-ethyl]-phenyl}-methanesulfonamide]: 114 to 115 °C. The molecule `Cc1cccc(-c2ccc(COCCc3cccc(NS(=O)(=O)C(F)(F)F)c3)c(F)c2)c1` [Example 16, C,C,C-Trifluoro-N-{3-[2-(3-fluoro-3′-methyl-biphenyl-4-yl-methoxy)-ethyl]-phenyl}-methanesulfonamide] registered a melting point of 60 to 61 °C. The value for `CC(C)(C)c1ccc(-c2nc(COCCc3cccc(NS(=O)(=O)C(F)(F)F)c3)no2)cc1` [Example 81, N-{3-[2-(5-(4-tert-Butyl-phenyl)-[1,2,4]oxadiazol-3-ylmethoxy)-ethyl]-phenyl}-C,C,C-trifluoro-methanesulfonamide] was 75 to 77 °C; that for `O=S(=O)(Nc1cccc(CCOCc2cccc(OCc3ccccc3)c2)c1)C(F)(F)F` [Example 73, N-{3-[2-(3-benzyloxy-benzyloxy)-ethyl]-phenyl}-C,C,C-trifluoro-methanesulfonamide] was 62 to 63 °C; that for `O=S(=O)(Nc1cccc(CCOCc2ccc(I)cc2)c1)C(F)(F)F` [Example 74, N-{3-[2-(4-Iodo-benzyloxy)-ethyl]-phenyl}-C,C,C-trifluoro-methanesulfonamide] was 48 to 50 °C. For `O=S(=O)(Nc1cccc(CCOCc2csc(-c3ccc(OC(F)(F)F)cc3)n2)c1)C(F)(F)F` [Example 61, C,C,C-Trifluoro-N-(3-{2-[2-(4-trifluoromethoxy-phenyl)-thiazol-4-yl-methoxy]-ethyl}-phenyl)-methanesulfonamide], the melting point is 115 to 116 °C. The value for `O=S(=O)(Nc1cccc(CCOCc2csc(-c3ccccc3)n2)c1)C(F)(F)F` [Example 58, C,C,C-Trifluoro-N-{3-[2-(2-phenyl-thiazol-4-ylmethoxy)-ethyl]phenyl}-methane sulfonamide] was 112 to 113 °C. The value for `O=S(=O)(Nc1cccc(CCOCc2ccc(-c3ccccn3)cc2)c1)C(F)(F)F` [Example 8, C,C,C-Trifluoro-N-{3-[2-(4-pyridin-2-yl-benzyloxy)-ethyl]-phenyl}-methane sulfonamide] was 95 to 96 °C; that for `O=S(=O)(Nc1cccc(CCOCc2ccc(-c3ccc(C(F)(F)F)cc3)cc2F)c1)C(F)(F)F` [Example 14, C,C,C-Trifluoro-N-{3-[2-(3-fluoro-4′-trifluoromethyl-biphenyl-4-yl-methoxy)-ethyl]-phenyl}-methanesulfonamide] was 121 to 122 °C; that for `COc1ccc(-c2nc(COCCc3cccc(NS(=O)(=O)C(F)(F)F)c3)no2)cc1` [Example 85, N-{3-[2-(5-(4-methoxy-phenyl)-[1,2,4]oxadiazol-3-ylmethoxy)-ethyl]-phenyl}-C,C,C-trifluoro-methanesulfonamide] was 88 to 90 °C. Next, `COc1ccc(-c2nc(COCCc3cccc(NS(=O)(=O)C(F)(F)F)c3)cs2)cc1` [Example 59, C,C,C-Trifluoro-N-(3-{2-[2-(4-methoxy-phenyl)-thiazol-4-ylmethoxy]-ethyl}-phenyl)-methanesulfonamide]: 112 to 113 °C; `O=S(=O)(Nc1cccc(CCOCc2ccc(-c3ccc(Cl)cc3Cl)cc2F)c1)C(F)(F)F` [Example 15, N-{3-[2-(2′,4′-Dichloro-3-fluoro-biphenyl-4-ylmethoxy)-ethyl]-phenyl}-C,C,C-trifluoro-methanesulfonamide]: 65 to 66 °C; `Cc1c(COCc2cccc(-c3nn[nH]n3)c2)cccc1-c1ccccc1` [Example 33, 5-[3-(2-Methyl-biphenyl-3-ylmethoxymethyl)-phenyl]-2H-tetrazole]: 112 to 114 °C. The molecule `O=S(=O)(Nc1cccc(CCOCc2ccc(-c3cccc(Cl)c3)cc2)c1)C(F)(F)F` [Example 5, N-{3-[2-(3′-Chloro-biphenyl-4-ylmethoxy)-ethyl]-phenyl}-C,C,C-trifluoromethane sulfonamide] yielded a melting point of 105 to 107 °C. The value for `O=S(=O)(Nc1cccc(CCOCc2cccc(-c3ccc(F)cc3)n2)c1)C(F)(F)F` [Example 64, C,C,C-Trifluoro-N-(3-{2-[6-(4-fluoro-phenyl)-pyridin-2-ylmethoxy]-ethyl}-phenyl)-methanesulfonamide] was 71 to 73 °C. Next, `CC(C)(C)c1ccc(COCCc2cccc(NS(=O)(=O)C(F)(F)F)c2)cc1` [Example 69, N-{3-[2-(4-tert-Butyl-benzyloxy)-ethyl]-phenyl}-C,C,C-trifluoro-methane sulfonamide]: 40 to 42 °C. The value for `O=S(=O)(Nc1cccc(CCOCc2csc(-c3ccc(C(F)(F)F)cn3)n2)c1)C(F)(F)F` [Example 57, C,C,C-Trifluoro-N-(3-{2-[2-(5-trifluoromethyl-pyridin-2-yl)-thiazol-4-yl-methoxy]ethyl}-phenyl)-methanesulfonamide] was 116 to 117 °C; that for `COc1ccc(-c2ccc(COCCc3cccc(NS(=O)(=O)C(F)(F)F)c3)c(F)c2)cc1` [Example 32, N-{3-[2-(3-fluoro-4′-methoxy-biphenyl-4-ylmethoxy)-ethyl]-phenyl)-C,C,C-trifluoromethanesulfonamide] was 82 to 84 °C. Molecule `O=S(=O)(Nc1cccc(CCOCc2csc(-c3ccc(C(F)(F)F)cc3)n2)c1)C(F)(F)F` [Example 52, C,C,C-Trifluoro-N-(3-{2-[2-(4-trifluoromethyl-phenyl)-thiazol-4-ylmethoxy]-ethyl}-phenyl)-methanesulfonamide] registered a melting point of 117 to 119 °C.

In turn, `O=S(=O)(Nc1cccc(CCOCc2ccc(-c3ccc(F)cc3)cc2F)c1)C(F)(F)F` [Example 10, N-{3-[2-(3,4′-Difluoro-biphenyl-4-ylmethoxy)-ethyl]-phenyl}-C,C,C-trifluoro-methanesulfonamide] returned a melting point of 65 to 67 °C. The value for `COc1cccc(-c2ccc(COCCc3cccc(NS(=O)(=O)C(F)(F)F)c3)c(F)c2)c1` [Example 20, C,C,C-Trifluoro-N-{3-[2-(3-fluoro-3′-methoxy-biphenyl-4-yl-methoxy)ethyl]-phenyl}-methanesulfonamide] was 80 to 82 °C; that for `O=S(=O)(Nc1cccc(CCOCc2cccc(-c3ccc(F)cc3)c2)c1)C(F)(F)F` [Example 36, N-{3-[2-(4′-Fluoro-biphenyl-3-ylmethoxy)-ethyl]-phenyl)-C,C,C-trifluoro-methanesulfonamide] was 48 to 50 °C; that for `O=S(=O)(Nc1cccc(CCOCc2ccc(-c3cc(Cl)cc(Cl)c3)cc2)c1)C(F)(F)F` [Example 35, N-{3-[2-(3′,5′-Dichloro-biphenyl-4-ylmethoxy)-ethyl]-phenyl)-C,C,C-trifluoro-methanesulfonamide] was 70 to 72 °C. Next, `COc1ccc(-c2ccc(COCCc3cccc(NS(=O)(=O)C(F)(F)F)c3)cc2)cc1` [Example 4, C,C,C-Trifluoro-N-{3-[2-(4′-methoxy-biphenyl-4-ylmethoxy)-ethyl]-phenyl}-methanesulfonamide]: 96 to 98 °C.

`O=S(=O)(Nc1cccc(CCOCc2cccc(-c3ccccc3)n2)c1)C(F)(F)F` [Example 65, C,C,C-Trifluoro-N-{3-[2-(6-phenyl-pyridin-2-ylmethoxy)-ethyl]-phenyl}-methane sulfonamide] came in with a melting point of 75 to 77 °C.

With `O=S(=O)(Nc1cccc(CCOCc2nc(-c3ccc(F)cc3)sc2Br)c1)C(F)(F)F` [Example 62, N-(3-{2-[5-Bromo-2-(4-fluoro-phenyl)-thiazol-4-ylmethoxy]-ethyl}-phenyl)-C,C,C-trifluoromethanesulfonamide], the melting point lay in the range of 84 to 85 °C. Molecule `COc1ccc(-c2cccc(COCCc3cccc(NS(=O)(=O)C(F)(F)F)c3)c2)cc1` [Example 28, C,C,C-Trifluoro-N-{3-[2-(4′-methoxy-biphenyl-3-ylmethoxy)-ethyl]-phenyl}-methanesulfonamide] had a melting point of 88 to 90 °C. Next, `O=S(=O)(Nc1cccc(CCOCc2ccc(-c3ccc(F)cc3)cc2)c1)C(F)(F)F` [Example 37, N-{3-[2-(4′-Fluoro-biphenyl-4-ylmethoxy)-ethyl]-phenyl)-C,C,C-trifluoro-methanesulfonamide]: 65 to 67 °C; `COc1ccc(-c2ccc(Cl)cc2)cc1COCCc1cccc(NS(=O)(=O)C(F)(F)F)c1` [Example 40, N-{3-[2-(4′-Chloro-4-methoxy-biphenyl-3-ylmethoxy)-ethyl]-phenyl}-C,C,C-trifluoromethanesulfonamide]: 99 to 101 °C.

The molecule `COc1ccc(-c2ccc(F)cc2)cc1COCCc1cccc(NS(=O)(=O)C(F)(F)F)c1` [Example 30, N-{3-[2-(4′-Fluoro-4-methoxy-biphenyl-3-ylmethoxy)-ethyl]-phenyl)-C,C,C-trifluoro-methanesulfonamide] gave a melting point of 55 to 57 °C.

One may read the melting point as the temperature of the solid-liquid transition.
